Experimental data reported in ChEMBL document CHEMBL1201862, “PubChem BioAssay data set” (2004).
The source made the active and inactive calls.

Target: T1, Ubiquitin-conjugating enzyme E2 N (Homo sapiens, UniProt P61088);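 note: Dose-response confirmation in a TR-FRET assay detecting UBC13-driven polyubiquitin chain formation, inhibition measured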
T1 sequence (P61088 whole entry): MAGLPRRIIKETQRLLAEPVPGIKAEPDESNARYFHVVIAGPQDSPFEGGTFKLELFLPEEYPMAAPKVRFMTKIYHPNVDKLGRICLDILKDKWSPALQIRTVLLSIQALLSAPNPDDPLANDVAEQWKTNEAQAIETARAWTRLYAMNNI
Test: not given
Format: functional
Settings: not given

Compound	IC50
Cn1c(C(=O)NCCCN2CCN(c3cccc(Cl)c3)CC2)cc2c(=O)n(C)c3ccccc3c21	> 20 µM (inactive)
Cc1ccc(O)c(CNCCNCc2cc(C)ccc2O)c1	> 20 µM (inactive)
CCC(C)(C)NC(=O)CN(C(=O)c1snc(C(N)=O)c1N)c1ccc2nc(C)sc2c1	> 20 µM (inactive)
COC(=O)C1=C(C)N(Cc2ccccc2)C(NCCc2c[nH]c3ccccc23)=N[C@H]1c1cccc(F)c1	> 20 µM (inactive)

System: H9c2;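 note: confirmatory concentration-response retest of ultra-high-throughput screening hits for modulation of myocardial damage; cell death induced by hydrogen peroxide oxidative stress; compound pretreatment for 60 min then peroxide exposure for 2 h; potency is for protecting the cells against peroxide damage rather than for killing them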
Test: cells
Format: functional, cell-based
Settings: Rattus norvegicus, H9c2, Myocardium

Compound	IC50
Cc1cc(C)cc(OCC(=O)Nc2cccc(-c3nnc(-c4ccco4)o3)c2)c1	9.22 µM (active)
O=C(NCC1CCCO1)C(c1ccc(F)cc1)N(C(=O)Cn1nnc(-c2ccc(F)cc2)n1)c1cccc(O)c1 (centres undefined)	> 79 µM (inactive)
CC(C)(C)OC(=O)NCCCCCNC(=O)c1[nH]cnc1C(=O)Nc1ccc(Cl)cc1	> 79 µM (inactive)
O=C(c1ccc(-c2nc3ccccc3s2)o1)N1CCN(c2ccccc2O)CC1	> 79 µM (inactive)
O=Cc1ccc(OCc2cccc(C(F)(F)F)c2)cc1O	> 79 µM (inactive)
Cc1cc(C)cc(N(CCC#N)C(=O)COC(=O)Cn2[nH]c(=O)c3ccccc3c2=O)c1	> 79 µM (inactive)
CCCN1CCN(C(=O)CCc2nnc3ccc(N4CCN(c5cccc(OC)c5)CC4)nn23)CC1	> 79 µM (inactive)
COc1cc(OC)cc(C(=O)NNC(=O)CCc2nc(O)c3ccccc3n2)c1	19.6 µM (active)
Nc1ccc2c(c1)nc(O)c1ccccc12	8.49 µM (active)
CC(=O)Nc1cccc(-c2cc(NC=O)c3ncc(-c4cccc(C(C)=O)c4)n3c2)c1	> 79 µM (inactive)
CCN(CC(=O)Nc1c(F)cccc1F)C(=O)CCc1nc(O)c2ccccc2n1	> 79 µM (inactive)
COc1ccc(C=NNc2nc3c(=O)n(C)c(=O)n(C)c3[nH]2)cc1	> 79 µM (inactive)
CCOc1ccccc1C(=O)N/N=C/c1cccc2cccnc12	12.4 µM (active)

Target: Nonstructural protein 1 (Influenza A virus, UniProt Q194T2)
Sequence (Q194T2 whole entry): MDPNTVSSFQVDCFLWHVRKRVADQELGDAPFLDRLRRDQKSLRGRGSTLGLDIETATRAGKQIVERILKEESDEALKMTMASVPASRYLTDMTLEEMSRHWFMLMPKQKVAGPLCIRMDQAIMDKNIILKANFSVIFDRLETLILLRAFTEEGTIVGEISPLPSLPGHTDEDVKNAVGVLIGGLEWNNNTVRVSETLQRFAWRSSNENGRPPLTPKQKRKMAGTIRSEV
Test: not given
Format: functional, Influenza A virus (A/California/07/2009(H1N1))
Settings: not given

Compound	IC50
COc1ccc(N=NC2C(=O)N(c3ccccc3)N=C2C)cc1 (centres undefined)	27.1 µM (active)
CCN(CC)CCNC(=O)c1ccc(NC(=O)/C=C/c2ccc3ccccc3n2)cc1	> 100 µM (active)
CCOc1ccccc1C(=O)N/N=C/c1cccc2cccnc12	32.3 µM (active)
Cc1c(NC(=S)N/N=C\c2ccccc2O)c(=O)n(-c2ccccc2)n1C	6.13 µM (active)

Target: Paired box protein Pax-8 (Homo sapiens, UniProt Q06710)
Sequence (Q06710 whole entry): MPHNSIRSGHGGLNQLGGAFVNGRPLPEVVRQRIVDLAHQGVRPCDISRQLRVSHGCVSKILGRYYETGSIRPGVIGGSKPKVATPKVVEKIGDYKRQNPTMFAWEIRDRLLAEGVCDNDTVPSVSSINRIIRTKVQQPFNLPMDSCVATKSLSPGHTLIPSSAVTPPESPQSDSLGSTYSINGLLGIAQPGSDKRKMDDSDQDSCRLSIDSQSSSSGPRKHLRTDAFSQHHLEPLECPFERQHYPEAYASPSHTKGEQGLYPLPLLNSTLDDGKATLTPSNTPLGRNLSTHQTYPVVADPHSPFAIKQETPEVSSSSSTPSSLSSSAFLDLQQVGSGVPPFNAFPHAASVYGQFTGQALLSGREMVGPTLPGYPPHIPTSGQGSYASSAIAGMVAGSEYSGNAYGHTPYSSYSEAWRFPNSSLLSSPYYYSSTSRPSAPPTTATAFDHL
Test: inhibitors of PAX8-driven TPO luciferase reporter, dose response, RMG-I cells, cherry-pick (AID 687027);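 note: luciferase reporter driven by Pax8 target thyroperoxidase promoter measured by SteadyGlo luminescence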
Format: functional, cell-based
Settings: not given

Compound	AC50
C[C@@H]1CN([C@H](C)CO)S(=O)(=O)c2ccc(C#CC3CCCC3)cc2O[C@@H]1CN(C)C(=O)Cc1ccncc1	16.5 µM (active)
C[C@@H]1CCCCO[C@@H](CN(C)C(=O)Nc2ccc(C(F)(F)F)cc2)[C@H](C)CN([C@@H](C)CO)C(=O)c2cc(NC(=O)Nc3ccc(C(F)(F)F)cc3)ccc2O1	2.31 µM (active)

System: not listed separately
Test: Luminescence Cell-Based Dose Retest to Confirm Inhibitors of Cancer Stem Cells. [Related pubchem assays (depositor defined):AID2717, AID2721]
Format: functional
Settings: Homo sapiens

Compound	AC50
COC(=O)C1=C(C)N(Cc2ccccc2)C(NCCc2c[nH]c3ccccc23)=N[C@H]1c1cccc(F)c1	6.45 µM (active)
